Test results as given in the supplement of paper PMC10307832.

Key:
Assay in all cases: relative viability (nuclei count vs DMSO), 5 days (fraction); higher = more cells survive
[1] = compound: CCN(CCO)CCCC(C)Nc1ccnc2cc(Cl)ccc12 [Hydroxychloroquine] + C[C@]1(O)C[C@@H](c2nc(-c3ccc4ccc(-c5ccccc5)nc4c3)c3c(N)nccn32)C1 [Linsitinib] (partner 1 µM)
In short: (§1)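 One day after seeding in 1536-well plates, lung cancer cell lines were dosed by pin tool. Dosing was either single-drug or a fixed anchor-drug dose plus five library-drug doses (not always all listed) in √10 steps. After 5 days, nuclei were stained in one fix-and-stain step and counted on 4× images, and relative viability is the nuclei count of treated wells over that of vehicle wells, given as the median of duplicate plates.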

[2] = compound: CCN(CCO)CCCC(C)Nc1ccnc2cc(Cl)ccc12 [Hydroxychloroquine] + CC1(C)CCC(c2ccc(Cl)cc2)=C(CN2CCN(c3ccc(C(=O)NS(=O)(=O)c4ccc(N[C@H](CCN5CCOCC5)CSc5ccccc5)c(S(=O)(=O)C(F)(F)F)c4)cc3)CC2)C1 [Navitoclax] (partner 0.5 µM)
In short: as §1

[3] = compound: CCN(CCO)CCCC(C)Nc1ccnc2cc(Cl)ccc12 [Hydroxychloroquine] + COc1cc2c(Oc3ccc(NC(=O)C4(C(=O)Nc5ccc(F)cc5)CC4)cc3F)ccnc2cc1OCCCN1CCOCC1 [Foretinib] (partner 0.25 µM)
In short: as §1

[4] = compound: CCN(CCO)CCCC(C)Nc1ccnc2cc(Cl)ccc12 [Hydroxychloroquine] + CCNC(=O)c1noc(-c2cc(C(C)C)c(O)cc2O)c1-c1ccc(CN2CCOCC2)cc1 [Luminespib] (partner 0.01 µM)
In short: as §1

| Cell Line | relative viability ([1]; first compound 0.5 µM) | relative viability ([1]; first compound 1.581 µM) | relative viability ([1]; first compound 5 µM) | relative viability ([1]; first compound 15.81 µM) | relative viability ([1]; first compound 50 µM) | relative viability ([2]; first compound 0.5 µM) | relative viability ([2]; first compound 1.581 µM) | relative viability ([2]; first compound 5 µM) | relative viability ([2]; first compound 15.81 µM) | relative viability ([2]; first compound 50 µM) | relative viability ([3]; first compound 0.5 µM) | relative viability ([3]; first compound 1.581 µM) | relative viability ([3]; first compound 5 µM) | relative viability ([3]; first compound 15.81 µM) | relative viability ([3]; first compound 50 µM) | relative viability ([4]; first compound 0.5 µM) | relative viability ([4]; first compound 1.581 µM) | relative viability ([4]; first compound 5 µM) | relative viability ([4]; first compound 15.81 µM) | relative viability ([4]; first compound 50 µM) |
| --- | --- | --- | --- | --- | --- | --- | --- | --- | --- | --- | --- | --- | --- | --- | --- | --- | --- | --- | --- | --- |
| LOU-NH91 | 0.907 | 0.811 | 0.981 | 0.937 | 0.946 | 0.679 | 0.543 | 0.742 | 0.676 | 0.826 | 0.921 | 0.831 | 0.949 | 0.94 | 0.914 | 0.369 | 0.313 | 0.307 | 0.345 | 0.371 |
| NCI-H358 | 0.795 | 0.704 | 0.712 | 0.69 | 0.743 |  |  |  |  |  | 0.639 | 0.628 | 0.643 | 0.593 | 0.827 | 0.286 | 0.293 | 0.282 | 0.283 | 0.388 |
| NCI-H522 |  |  |  |  |  |  |  |  |  |  |  |  |  |  |  | 1.17 | 1.12 | 1.08 | 1.31 | 1.32 |
| NCI-H650 | 0.907 | 0.802 |  | 0.828 | 0.818 |  |  |  |  |  | 1.04 | 0.888 | 0.983 | 1.03 | 0.97 | 0.884 | 0.818 | 0.78 | 0.881 | 0.795 |
| NCI-H661 | 0.537 | 0.361 | 0.564 | 0.542 | 0.598 |  |  |  |  |  | 0.998 | 0.992 | 1.01 | 1 | 1.05 | 1.02 | 0.926 | 0.85 | 0.915 | 0.922 |
| NCI-H1299 | 1.03 | 0.633 | 1.03 | 0.973 | 1.06 | 1.05 | 1.01 | 1.02 | 1.05 | 1.04 | 1.09 | 1.05 | 1.14 | 1.12 | 1.06 |  |  |  |  |  |
| NCI-H1563 | 1.03 | 1.04 | 1.18 | 1.06 | 1.17 |  |  |  |  |  | 0.886 | 0.804 | 0.88 | 0.825 | 0.965 | 0.521 | 0.579 | 0.488 | 0.567 | 0.496 |
| NCI-H1650 |  |  |  |  |  | 1.06 | 1.06 | 1.24 | 1.04 | 1.29 | 0.996 | 1.01 | 1.02 | 0.999 | 1.15 | 0.178 | 0.173 | 0.203 | 0.227 | 0.193 |
| NCI-H1703 | 0.601 | 0.418 | 0.8 | 0.614 | 1.09 | 1.08 | 0.934 | 1.02 | 1.02 | 1.29 | 0.402 | 0.443 | 0.313 | 0.347 | 0.379 |  |  |  |  |  |
| NCI-H1792 | 0.534 | 0.588 | 0.583 | 0.536 | 0.56 | 0.509 | 0.607 | 0.686 | 0.367 | 0.451 |  |  |  |  |  | 0.434 | 0.503 | 0.472 | 0.698 | 0.442 |
| NCI-H2170 |  |  |  |  |  | 0.54 | 0.695 | 0.631 | 0.644 | 0.549 | 1.04 | 1.04 | 0.973 | 1.01 | 1.1 | 0.543 | 0.646 | 0.765 | 0.714 | 1.01 |
| NCI-H2342 |  |  |  |  |  |  |  |  |  |  | 0.917 | 0.995 | 1.05 | 1.01 | 1.1 | 0.606 | 0.668 | 0.706 | 0.69 | 0.809 |
